This note sets out measurements from patent publication US12139477B2, “Compounds, salts thereof and methods for treatment of diseases” (ACADIA PHARMACEUTICALS INC., priority 2017, dated 2024).

The target in this experiment is 5HT2A (Homo sapiens, UniProt P28223). As to the kind of experiment: Receptor Selection and Amplification (R-SAT) functional assay. The settings on record: NIH3T3 cells, Ki from IC50 by Cheng and Prussoff; for Ki: read-out: 5-HT2a (pKi) (R-SAT) (converted). Also noted: expressed in transfected cells; host or cells: NIH3T3 cells, pSI mammalian expression vector. It counts as cell-based. The text has this: Receptor Selection and Amplification (R-SAT) Assays. […] The IC50 determined in the RSAT assay was converted into a Ki value using the method of Cheng and Prussoff, Biochem Pharmacol., 1973 Dec. 1; 22(23):3099-108. pKi is the negative of the log(Ki).
Sequence of 5HT2A (P28223 whole entry): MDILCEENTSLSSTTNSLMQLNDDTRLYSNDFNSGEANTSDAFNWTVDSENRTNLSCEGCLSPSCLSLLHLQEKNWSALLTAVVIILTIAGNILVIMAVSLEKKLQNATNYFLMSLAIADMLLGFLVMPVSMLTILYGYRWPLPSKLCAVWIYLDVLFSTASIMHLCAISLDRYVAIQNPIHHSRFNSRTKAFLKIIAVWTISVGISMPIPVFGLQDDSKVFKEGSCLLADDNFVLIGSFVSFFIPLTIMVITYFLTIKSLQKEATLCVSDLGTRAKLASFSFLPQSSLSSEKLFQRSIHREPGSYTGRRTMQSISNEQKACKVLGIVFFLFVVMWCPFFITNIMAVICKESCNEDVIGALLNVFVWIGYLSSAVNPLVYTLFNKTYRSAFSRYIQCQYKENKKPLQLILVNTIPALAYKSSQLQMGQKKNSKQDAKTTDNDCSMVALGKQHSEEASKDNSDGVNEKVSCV

Regarding `CN1CCC(N(Cc2ccc(F)cc2F)C(=O)NCc2ccc3c(c2)OCO3)CC1` [Example 128, 3-[(2H-1,3-benzodioxol-5-yl)methyl]-1-[(2,4-difluorophenyl)methyl]-1-(1-methylpiperidin-4-yl)urea], the Ki is 7.94 nM.

`COc1ccc(CNC(=O)N(Cc2ccc(F)cc2F)C2CCNCC2)cc1.COc1ccc(CNC(=O)N(Cc2ccc(F)cc2F)C2CCNCC2)cc1.O=C(O)C(O)C(O)C(=O)O` [Example 126, 1-[(2,4-difluorophenyl)methyl]-3-[(4-methoxyphenyl)methyl]-1-(piperidin-4-yl)urea; Hemitartrate]: the “5-HT2a (pKi) (R-SAT)” value is 8.1. Take `CN1CCC(N(Cc2ccc(F)cc2)C(=O)NCc2ccc(F)cc2F)CC1` [Example 100, 3-[(2,4-difluorophenyl)methyl]-1-[(4-fluorophenyl)methyl]-1-(1-methylpiperidin-4-yl)urea; Trifluoroacetic Acid]: the Ki was 20 nM. Same read-out and setting: for `COc1ccc(CNC(=O)N(Cc2ccc(F)cc2F)C2CCN(C)CC2)c(Cl)c1` [Example 51] the value was 25.1 nM. On the same count and under the same terms, then `COc1ccc(CNC(=O)N(Cc2ccc(F)cc2F)C2CCN(C)CC2)c(OC)c1` [Example 50], with 100 nM. In the case of `CC(C)COc1ccc(CNC(=O)N(Cc2ccc(F)cc2OC(F)F)C2CCN(C)CC2)cc1` [Example 101, 1-{[2-(difluoromethoxy)-4-fluorophenyl]methyl}-1-(1-methylpiperidin-4-yl)-3-{[4-(2-methylpropoxy)phenyl]methyl}urea; Trifluoroacetic Acid], the Ki was 79.4 nM. As to `COCCCOc1ccc(CNC(=O)N(Cc2ccc(F)cc2F)C2CCN(C)CC2)cc1` [Example 96, 1-[(2,4-difluorophenyl)methyl]-3-{[4-(3-methoxypropoxy)phenyl]methyl}-1-(1-methylpiperidin-4-yl)urea; Trifluoroacetic Acid], the Ki is 10 nM. As for `CC(C)Oc1ccc(CNC(=O)N(Cc2c(F)ccc(F)c2F)C2CCN(C)CC2)cc1` [Example 113, 1-(1-methylpiperidin-4-yl)-3-{[4-(propan-2-yloxy)phenyl]methyl}-1-[(2,3,6-trifluorophenyl)methyl]urea; Trifluoroacetic Acid], the Ki is 126 nM.

Regarding `CC(C)C(C)(O)COc1ccc(CNC(=O)N(Cc2ccc(F)cc2F)C2CCN(C)CC2)cc1` (centres unmarked) [Example 87, 1-[(2,4-difluorophenyl)methyl]-3-{[4-(2-hydroxy-2,3-dimethylbutoxy)phenyl]methyl}-1-(1-methylpiperidin-4-yl)urea; Trifluoroacetic Acid], the Ki was 10 nM. Turning to `CCOc1ccc(CNC(=O)N(Cc2ccc(F)cc2F)C2CCNCC2)cc1.CCOc1ccc(CNC(=O)N(Cc2ccc(F)cc2F)C2CCNCC2)cc1.O=C(O)C(O)C(O)C(=O)O` [Example 127, 3-[(2,4-difluorophenyl)methyl]-1-[(4-ethoxyphenyl)methyl]-3-(piperidin-4-yl)urea; Hemitartrate], the “5-HT2a (pKi) (R-SAT)” value was 8.2. Consider `CC(C)COc1ccc(CNC(=O)N(Cc2c(F)cc(Cl)cc2F)C2CCN(C)CC2)cc1` [Example 71], for which the Ki is 12.6 nM. Turning to `CC(C)COc1ccc(CNC(=O)N(Cc2c(F)cccc2F)C2CCN(C)CC2)cc1` [Example 72], the Ki is 15.8 nM. For `CC(C)Oc1ccc(CNC(=O)N(Cc2ccc(F)cc2F)[C@@H]2CCN3CCC[C@H]3C2)cc1` [Example 80, 1-[(7R,8aS)-octahydroindolizin-7-yl]-1-[(2,4-difluorophenyl)methyl]-3-{[4-(propan-2-yloxy)phenyl]methyl}urea; Trifluoroacetic Acid], the Ki is 2.51 nM. `COc1ccc(CN(C(=O)NCc2ccc(OC(C)C)cc2)C2CCN(C)CC2)c(F)c1` [Example 122, 1-[(2-fluoro-4-methoxyphenyl)methyl]-1-(1-methylpiperidin-4-yl)-3-{[4-(propan-2-yloxy)phenyl]methyl}urea; Trifluoroacetic Acid]: the Ki was 7.94 nM. For `CC(C)COc1ccc(CNC(=O)N(Cc2ccc(F)cc2OCc2ccccc2)C2CCN(C)CC2)cc1` [Example 13b, 1-{[2-(benzyloxy)-4-fluorophenyl]methyl}-1-(1-methylpiperidin-4-yl)-3-{[4-(2-methylpropoxy)phenyl]methyl}urea], the Ki is 63.1 nM. For the compound `CN1CCC(N(Cc2ccc(F)cc2F)C(=O)NCc2ccc(Oc3ccccc3)cc2)CC1` [Example 120, 3-[(2,4-difluorophenyl)methyl]-3-(1-methylpiperidin-4-yl)-1-[(4-phenoxyphenyl)methyl]urea], the Ki was 7.94 nM.

Consider `C[C@H](c1ccc(F)cc1F)N(C(=O)NCc1ccc(OC2CC2)cc1)C1CCN(C)CC1` [Example 47], for which the Ki was 126 nM.

On to `CN1CCC(N(Cc2ccc(F)cc2F)C(=O)NCc2ccc3c(c2)N(C)CCO3)CC1` [Example 32], for which the Ki was 7.94 nM.

In the case of `CN1CCC(N(Cc2ccc(F)cc2F)C(=O)NCc2ccc3[nH]ncc3c2)CC1` [Example 93, 1-[(2,4-difluorophenyl)methyl]-3-[(1H-indazol-5-yl)methyl]-1-(1-methylpiperidin-4-yl)urea; Trifluoroacetic Acid], the Ki was 39.8 nM.

Take `CC(C)COc1ccc(CNC(=O)N(Cc2cccc(F)c2F)C2CCN(C)CC2)cc1` [Example 129, 1-[(2,3-difluorophenyl)methyl]-1-(1-methylpiperidin-4-yl)-3-{[4-(2-methylpropoxy)phenyl]methyl}urea; Trifluoroacetic Acid]: the Ki is 50.1 nM. In the case of `CC(C)Oc1ccc(CNC(=O)N(Cc2ccc(F)c(F)c2)C2CCN(C)CC2)cc1` [Example 130, 1-[(3,4-difluorophenyl)methyl]-1-(1-methylpiperidin-4-yl)-3-{[4-(propan-2-yloxy)phenyl]methyl}urea; Trifluoroacetic Acid], the Ki is 79.4 nM.

As for `CC(C)COc1ccc(CNC(=O)N(Cc2ccc(F)cc2Cl)C2CCNCC2)cc1` [Example 109, 1-[(2-chloro-4-fluorophenyl)methyl]-3-{[4-(2-methylpropoxy)phenyl]methyl}-1-(piperidin-4-yl)urea; Trifluoroacetic Acid], the Ki was 25.1 nM.

Consider `Cc1cc(F)ccc1CN(C(=O)NCc1ccc(OCC(C)C)cc1)C1CCN(C)CC1` [Example 104, 1-[(4-fluoro-2-methylphenyl)methyl]-1-(1-methylpiperidin-4-yl)-3-{[4-(2-methylpropoxy)phenyl]methyl}urea; Trifluoroacetic Acid], for which the Ki was 39.8 nM. Same read-out and setting: for `CN1CCC(N(Cc2ccc(F)cc2F)C(=O)NCc2ccc([C@H](O)CO)cc2)CC1` (racemic) [Example 94, 1-[(2,4-difluorophenyl)methyl]-3-({4-[(1R)-1,2-dihydroxyethyl]phenyl}methyl)-1-(1-methylpiperidin-4-yl)urea; Trifluoroacetic Acid and 1-[(2,4-difluorophenyl)methyl]-3-({4-[(1S)-1,2-dihydroxyethyl]phenyl}methyl)-1-(1-methylpiperidin-4-yl)urea; Trifluoroacetic Acid] the value was 100 nM. Consider `CC(C)Oc1ccc(CNC(=O)N(Cc2ccc(F)cc2F)C2CCCN(C)CC2)cc1` (centres unmarked) [Example 78, 1-[(2,4-difluorophenyl)methyl]-1-(1-methylazepan-4-yl)-3-{[4-(propan-2-yloxy)phenyl]methyl}urea; Trifluoroacetic Acid], for which the Ki is 6.31 nM. Turning to `CC(C)COc1ccc(CNC(=O)N(Cc2cc(F)c(F)cc2F)C2CCN(C)CC2)cc1` [Example 70], the Ki was 50.1 nM.

As for `CC(C)Oc1ccc(CNC(=O)N(Cc2ccc(F)c(F)c2F)C2CCN(C)CC2)cc1` [Example 135, 1-(1-methylpiperidin-4-yl)-3-{[4-(propan-2-yloxy)phenyl]methyl}-1-[(2,3,4-trifluorophenyl)methyl]urea; Trifluoroacetic Acid], the Ki is 15.8 nM.

For the compound `CN1CCC(N(Cc2ccc(F)cc2F)C(=O)NCc2cccc3c2CC(C)(C)O3)CC1` [Example 58], the Ki was 158 nM. Same read-out and setting: for `Cc1ccc(F)c(CN(C(=O)NCc2ccc(OC(C)C)cc2)C2CCN(C)CC2)c1F` [Example 112, 1-[(2,6-difluoro-3-methylphenyl)methyl]-1-(1-methylpiperidin-4-yl)-3-{[4-(propan-2-yloxy)phenyl]methyl}urea; Trifluoroacetic Acid] the value was 39.8 nM; for `CN1CCC(N(Cc2ccc(F)cc2F)C(=O)NCc2ccc3ncoc3c2)CC1` [Example 29], 10 nM; for `Cc1cc(OC(C)C)ccc1CNC(=O)N(Cc1ccc(F)cc1F)C1CCN(C)CC1` [Example 116, 1-[(2,4-difluorophenyl)methyl]-3-{[2-methyl-4-(propan-2-yloxy)phenyl]methyl}-1-(1-methylpiperidin-4-yl)urea; Hemitartrate], 63.1 nM. Same read-out and setting: for `COc1cc(OC(C)C)ccc1CNC(=O)N(Cc1ccc(F)cc1F)C1CCN(C)CC1` [Example 74, 1-[(2,4-difluorophenyl)methyl]-3-{[2-methoxy-4-(propan-2-yloxy)phenyl]methyl}-1-(1-methylpiperidin-4-yl)urea] the value was 39.8 nM. For the compound `COc1ccc(CN(C(=O)NCc2ccc(OCC(C)C)cc2)C2CCN(C)CC2)c(C(F)(F)F)c1` [Example 121, 3-{[4-methoxy-2-(trifluoromethyl)phenyl]methyl}-3-(1-methylpiperidin-4-yl)-1-{[4-(2-methylpropoxy)phenyl]methyl}urea], the Ki was 126 nM. As to `Cc1c(F)ccc(CN(C(=O)NCc2ccc(OC(C)C)cc2)C2CCN(C)CC2)c1F` [Example 114, 1-[(2,4-difluoro-3-methylphenyl)methyl]-1-(1-methylpiperidin-4-yl)-3-{[4-(propan-2-yloxy)phenyl]methyl}urea; Trifluoroacetic Acid], the Ki was 6.31 nM.

On to `CC(C)COc1ccc(CNC(=O)N(Cc2ccc(Cl)cc2Cl)C2CCNCC2)cc1` [Example 111, 1-[(2,4-dichlorophenyl)methyl]-3-{[4-(2-methylpropoxy)phenyl]methyl}-1-(piperidin-4-yl)urea; Trifluoroacetic Acid], for which the Ki was 79.4 nM.
